The first assay deals with T1, human GPR120 (Homo sapiens, UniProt Q5NUL3).
T1 construct: Flag (DYKDDDDK) (N); host or cells: HEK293 cells co-expressing Gqi5
T1 sequence (Q5NUL3 1-361): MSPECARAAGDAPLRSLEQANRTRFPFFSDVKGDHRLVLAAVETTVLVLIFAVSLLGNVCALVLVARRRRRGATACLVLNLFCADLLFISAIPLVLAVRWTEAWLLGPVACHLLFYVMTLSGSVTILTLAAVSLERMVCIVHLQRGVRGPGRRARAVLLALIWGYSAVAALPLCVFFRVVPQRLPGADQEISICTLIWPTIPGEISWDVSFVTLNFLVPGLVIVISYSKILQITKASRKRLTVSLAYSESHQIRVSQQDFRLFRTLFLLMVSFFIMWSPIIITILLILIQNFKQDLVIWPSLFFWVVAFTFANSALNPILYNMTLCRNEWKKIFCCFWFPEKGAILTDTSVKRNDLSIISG
The experiment in a line: Intracellular Ca2+ assay (FLIPR Calcium 4, Flexstation) in human GPR120 stable cell line. The assay is classed as cell-based. Conditions: % activity at 2.5 μM compared to the maximal activity of the compound of Example 25 at 2.5 μM; HEK293 cells co-expressing Gqi5. Put shortly: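 HEK293 cells co-expressing Gqi5 and stably expressing Flag-tagged human GPR120 were seeded at 70,000 cells per well in poly-D-lysine coated 96 well plates and loaded with FLIPR Calcium 4 dye for 50 minutes at 37° C. On a Flexstation, compound-induced fluorescence (excitation 485 nm, emission 525) was recorded for 90 seconds. Percent activity was expressed against a reference agonist's maximal activity at 2.5 μM, set as 100%.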
Regarding `[2H]C([2H])(Oc1ccc(CC(C)C(=O)O)cc1F)c1cc(F)cc2c1OC(C)(C)C2` (centres unmarked) [Example 230, 3-(4-(dideuterio(5-fluoro-2,2-dimethyl-2,3-dihydrobenzofuran-7-yl)methoxy)-3-fluorophenyl)-2-methylpropanoic acid], the “% Activity (Ex. 25 Reference Compound)” value stood at 86.25%.

`Cc1cc(OCC(=O)O)ccc1OCc1cc(Cl)cc2c1OC(C)(C)C2` [Example 103, 2-(4-((5-chloro-2,2-dimethyl-2,3-dihydrobenzofuran-7-yl)methoxy)-3-methylphenoxy)acetic acid]: the “% Activity (Ex. 25 Reference Compound)” value was found to be 98.96%.

For the compound `CCN(CC)c1cc(COc2ccc(CC(C)C(=O)O)cc2)c2c(c1)CC(C)(C)O2` (centres unmarked) [Example 89, 3-(4-((5-(diethylamino)-2,2-dimethyl-2,3-dihydrobenzofuran-7-yl)methoxy)phenyl)-2-methylpropanoic acid], the “% Activity (Ex. 25 Reference Compound)” value was determined as 82.28%.

Consider `CC(C)Oc1ccc(Cl)cc1COc1ccc2c(c1)CCC2CC(=O)O` (centres unmarked) [Example 258, 2-(5-((5-chloro-2-isopropoxybenzyl)oxy)-2,3-dihydro-1H-inden-1-yl)acetic acid], for which the “% Activity (Ex. 25 Reference Compound)” value is reported as 139.95%.

`Cc1cc(CCC(=O)O)c(C)c(C)c1OCc1cc(F)cc2c1OC(C)(C)C2` [Example 254, 3-(4-((5-fluoro-2,2-dimethyl-2,3-dihydrobenzofuran-7-yl)methoxy)-2,3,5-trimethylphenyl) propanoic acid]: the “% Activity (Ex. 25 Reference Compound)” value came to 146.14%.

For the compound `CC1(C)Cc2c(COc3ccc4c(c3)CCC4CC(=O)O)ccc(F)c2O1` (centres unmarked) [Example 94, 2-(5-((7-fluoro-2,2-dimethyl-2,3-dihydrobenzofuran-4-yl)methoxy)-2,3-dihydro-1H-inden-1-yl)acetic acid], the “% Activity (Ex. 25 Reference Compound)” value stood at 98.45%.

For the compound `Cc1nc2cccc(COc3c(F)cc(CC(C)C(=O)O)cc3F)c2o1` (centres unmarked) [Example 261, 3-(3,5-difluoro-4-((2-methylbenzo[d]oxazol-7-yl)methoxy)phenyl)-2-methylpropanoic acid], the “% Activity (Ex. 25 Reference Compound)” value is given as 108.78%.

As for `CC(Cc1ccc(OCc2cc(F)cc3c2OCOC3)cc1)C(=O)O` (centres unmarked) [Example 45, 3-(4-((6-fluoro-4H-benzo[d][1,3]dioxin-8-yl)methoxy)phenyl)-2-methylpropanoic acid], the “% Activity (Ex. 25 Reference Compound)” value is listed as 79.58%.

On to `CC(CC(=O)O)Cc1ccc(OCc2cc(F)cc3c2OC(C)(C)C3)cc1` (centres unmarked) [Example 182, 4-(4-((5-fluoro-2,2-dimethyl-2,3-dihydrobenzofuran-7-yl)methoxy)phenyl)-3-methylbutanoic acid], for which the “% Activity (Ex. 25 Reference Compound)” value was 98.43%.

For `CC(C)Oc1cc(OCc2cc(Cl)cc3c2OC(C)(C)C3)ccc1CCC(=O)O` [Example 116, 3-(4-((5-chloro-2,2-dimethyl-2,3-dihydrobenzofuran-7-yl)methoxy)-2-isopropoxyphenyl)propanoic acid], the “% Activity (Ex. 25 Reference Compound)” value was determined as 145.6%.

With `CC1(C)Cc2cc(F)cc(COc3ccc(CCCC(=O)O)cc3)c2O1` [Example 160, 4-(4-((5-fluoro-2,2-dimethyl-2,3-dihydrobenzofuran-7-yl)methoxy)phenyl)butanoic acid], the “% Activity (Ex. 25 Reference Compound)” value came to 172.13%.

Regarding `Cc1cc(OCc2cc(F)cc3c2OC(C)(C)C3)ccc1CCC(=O)O` [Example 46, 3-(4-((5-fluoro-2,2-dimethyl-2,3-dihydrobenzofuran-7-yl)methoxy)-2-methylphenyl)propanoic acid], the “% Activity (Ex. 25 Reference Compound)” value was 113.55%.

As for `Cc1c(CCC(=O)O)ccc(OCc2cc(Cl)cc3c2OC(C)(C)C3)c1C` [Example 209, 3-(4-((5-chloro-2,2-dimethyl-2,3-dihydrobenzofuran-7-yl)methoxy)-2,3-dimethylphenyl)propanoic acid], the “% Activity (Ex. 25 Reference Compound)” value was determined as 142.22%.

`O=C(O)C1CC1c1ccc(OCc2cc(F)cc3c2OC2(CCCC2)C3)cc1` (centres unmarked) [Example 165, 2-(4-((5-fluoro-3H-spiro[benzofuran-2,1′-cyclopentane]-7-yl)methoxy)phenyl)cyclopropanecarboxylic acid]: the “% Activity (Ex. 25 Reference Compound)” value is 158.08%.

For the compound `CC1(C)Cc2cc(F)cc(COc3ccc4c(c3)CCCC4CC(=O)O)c2O1` (centres unmarked) [Example 153, 2-(6-((5-fluoro-2,2-dimethyl-2,3-dihydrobenzofuran-7-yl)methoxy)-1,2,3,4-tetrahydronaphthalen-1-yl)acetic acid], the “% Activity (Ex. 25 Reference Compound)” value came to 106.81%.

Consider `CC(Cc1cc(F)c(OCc2cc(Cl)cc3c2OC(C)C3(C)C)c(F)c1)C(=O)O` (centres unmarked) [Example 109, 3-(4-((5-chloro-2,3,3-trimethyl-2,3-dihydrobenzofuran-7-yl)methoxy)-3,5-difluorophenyl)-2-methylpropanoic acid], for which the “% Activity (Ex. 25 Reference Compound)” value came to 72.36%.

On to `CC(Cc1ccc(OCc2cc(Cl)cc3c2OC(C)(C)C3=O)c(C(F)(F)F)c1)C(=O)O` (centres unmarked) [Example 79, 3-(4-((5-chloro-2,2-dimethyl-3-oxo-2,3-dihydrobenzofuran-7-yl)methoxy)-3-(trifluoromethyl)phenyl)-2-methylpropanoic acid], for which the “% Activity (Ex. 25 Reference Compound)” value is given as 3.85%.

As to `C[C@H](Cc1ccc(OCc2cc(Cl)cc3c2OC(C)(C)C3)c(C(F)(F)F)c1)C(=O)O` [Example 143, (R)-3-(4-((5-chloro-2,2-dimethyl-2,3-dihydrobenzofuran-7-yl)methoxy)-3-(trifluoromethyl)phenyl)-2-methylpropanoic acid], the “% Activity (Ex. 25 Reference Compound)” value is on record as 90.56%.

With `CC(Cc1ccc(OCc2cc(Cl)cc3c2OC(C)(C)C3O)c(F)c1)C(=O)O` (centres unmarked) [Example 80, 3-(4-((5-chloro-3-hydroxy-2,2-dimethyl-2,3-dihydrobenzofuran-7-yl)methoxy)-3-fluorophenyl)-2-methylpropanoic acid], the “% Activity (Ex. 25 Reference Compound)” value is on record as 86.25%.

As for `CC1(C)Cc2cc(F)cc(COc3ccc4c(c3)CC[C@@H]4CC(=O)O)c2O1` [Example 178, (R)-2-(5-((5-fluoro-2,2-dimethyl-2,3-dihydrobenzofuran-7-yl)methoxy)-2,3-dihydro-1H-inden-1-yl)acetic acid], the “% Activity (Ex. 25 Reference Compound)” value is given as 106%.

For `Cc1cc2cc(Cl)cc(COc3ccc(CC(C)C(=O)O)cc3F)c2o1` (centres unmarked) [Example 120, 3-(4-((5-chloro-2-methylbenzofuran-7-yl)methoxy)-3-fluorophenyl)-2-methylpropanoic acid], the “% Activity (Ex. 25 Reference Compound)” value is reported as 104.49%.

As for `Cc1cc2cccc(COc3ccc4c(c3)CCC4CC(=O)O)c2s1` (stereo not drawn) [Example 152, 2-(5-((2-methylbenzo[α]thiophen-7-yl)methoxy)-2,3-dihydro-1H-inden-1-yl)acetic acid], the “% Activity (Ex. 25 Reference Compound)” value stood at 83.81%.

The assay is the same for the next values; noted with them: human GPR120 stably expressing cells, eight concentrations from 0.00001 to 20 μM.
`CCN(CC)c1cc(COc2ccc(CC(C)C(=O)O)cc2)c2c(c1)CC(C)(C)O2` (centres unmarked) [Example 89, 3-(4-((5-(diethylamino)-2,2-dimethyl-2,3-dihydrobenzofuran-7-yl)methoxy)phenyl)-2-methylpropanoic acid]: the EC50 – broadly, the concentration that produces a half-maximal response – is 1 to 10 µM.

Regarding `Cc1cc(OCc2cc(F)cc3c2OC(C)(C)C3)ccc1CCC(=O)O` [Example 46, 3-(4-((5-fluoro-2,2-dimethyl-2,3-dihydrobenzofuran-7-yl)methoxy)-2-methylphenyl)propanoic acid], the concentration giving a half-maximal response (EC50) lay in the range of 1 to 10 µM.

In the case of `CC1(C)Cc2cc(F)cc(COc3cc(F)c(CCC(=O)O)c(F)c3)c2O1` [Example 49, 3-(2,6-difluoro-4-((5-fluoro-2,2-dimethyl-2,3-dihydrobenzofuran-7-yl)methoxy)phenyl)propanoic acid], the EC50 is 1 to 10 µM.

Turning to `COc1cc(CCC(=O)O)c(Br)cc1OCc1cc(Cl)cc2c1OC(C)(C)C2` [Example 57, 3-(2-bromo-4-((5-chloro-2,2-dimethyl-2,3-dihydrobenzofuran-7-yl)methoxy)-5-methoxyphenyl)propanoic acid], the concentration for a half-maximal effect (EC50) fell in the range of 1 to 10 µM.

The values are drawn from patent US8598374B2, “GPR120 receptor agonists and uses thereof” (Metabolex, Inc, priority 2008, dated 2013).
